# Assays:
# [1] = Clinical observations during 7-day oral dosing in beagle dogs; conditions: for Clinical Observation: Group 2: fesoterodine fumarate 3 mg/kg/day PO, individual dog
# [2] = tested on: Compound 1 induced salivation; experiment: Fesoterodine dose-response antagonistic effect on Compound 1 induced salivation in anaesthetized rats; type: in vivo, Sprague Dawley rats
# Protocol: An in vivo primary pharmacology study evaluating the fesoterodine fumarate dose-response antagonistic effect on Compound 1 induced salivation in anaesthetized male Sprague Dawley rats was conducted. […] Intravenous fesoterodine doses were administered at […]. Fesoterodine was dosed 10 minutes prior to dosage of Compound 1. All animals were normal with no observed abnormality detected in clinical signs or behavior. Salivation was measured by using oral dry swab in anesthetized rats with the calculated difference between the dry swab weight and the wet swab weight indicating the weight of saliva produced. Samples were collected post-dosing for one hour at 10-minute intervals.
# salivation = experiment: Single ascending dose study: salivation (pharmacodynamics); type: in vivo, healthy adult volunteers; conditions: Group 2: 8 mg fesoterodine fumarate 4 hours prior to 40 mg Compound 1, vs placebo pre-treatment (FIG. 2)
# Protocol: MTD was established at the dose which produced mild to moderate cholinergic adverse effects. Cholinergic effects were monitored for each dose, including pupillometry and salivation.
# Group 2 evaluated tolerability of Compound 1 at Group 1 MTD with or without fesoterodine fumarate co-administration. Subjects received 8 mg of fesoterodine fumarate tablet or matched placebo tablet 4 hours prior to administration of 40 mg of Compound 1.
# [3] = Fesoterodine 0.0078 mg/mL IV 10 min prior to Compound 1 (1.5 mg/kg) IV
# [4] = Fesoterodine 0.0156 mg/mL IV 10 min prior to Compound 1 (1.5 mg/kg) IV
# [5] = Fesoterodine 0.0312 mg/mL IV 10 min prior to Compound 1 (1.5 mg/kg) IV
# [6] = Fesoterodine 0.0625 mg/mL IV 10 min prior to Compound 1 (1.5 mg/kg) IV
# [7] = Fesoterodine 0.125 mg/mL IV 10 min prior to Compound 1 (1.5 mg/kg) IV
# [8] = Fesoterodine 0.25 mg/mL IV 10 min prior to Compound 1 (1.5 mg/kg) IV
# [9] = Fesoterodine 0.5 mg/mL IV 10 min prior to Compound 1 (1.5 mg/kg) IV
compound,measurement,setting,value
"CC(C)C(=O)Oc1ccc(CO)cc1[C@H](CCN(C(C)C)C(C)C)c1ccccc1 [Fesoterodine, fesoterodine]",peripheral side effects observed after dosing,"[1]; Group 1 Compound 1 1.5 mg/kg/day PO alone, Group 3 with fesoterodine fumarate 3 mg/kg/day PO, 7 days",substantially reduced the peripheral effects
same,Clinical Observation,[1]; 7 day period,none
same,Clinical Observation,[1]; day 1,"For D2001, miosis was found 1 hr 10 min after dosing on day 1. 2 hr"
same,"Salivation (mg) (mean value), 10 min",[2]; [3],347.49 mg
same,"Salivation (mg) (mean value), 20 min",[2]; [3],90.03 mg
same,"Salivation (mg) (mean value), 30 min",[2]; [3],26.31 mg
same,"Salivation (mg) (mean value), 40 min",[2]; [3],10.29 mg
same,"Salivation (mg) (mean value), 50 min",[2]; [3],9.96 mg
same,"Salivation (mg) (mean value), 60 min",[2]; [3],7.74 mg
same,"Salivation (mg) (mean value), Total",[2]; [3],491.83 mg
same,"Salivation (mg) (mean value), 10 min",[2]; [4],163.43 mg
same,"Salivation (mg) (mean value), 20 min",[2]; [4],69.8 mg
same,"Salivation (mg) (mean value), 30 min",[2]; [4],30.58 mg
same,"Salivation (mg) (mean value), 40 min",[2]; [4],16.26 mg
same,"Salivation (mg) (mean value), 50 min",[2]; [4],11.66 mg
same,"Salivation (mg) (mean value), 60 min",[2]; [4],5.71 mg
same,"Salivation (mg) (mean value), Total",[2]; [4],297.45 mg
same,"Salivation (mg) (mean value), 10 min",[2]; [5],95.37 mg
same,"Salivation (mg) (mean value), 20 min",[2]; [5],61.86 mg
same,"Salivation (mg) (mean value), 30 min",[2]; [5],29.68 mg
same,"Salivation (mg) (mean value), 40 min",[2]; [5],8.31 mg
same,"Salivation (mg) (mean value), 50 min",[2]; [5],8.78 mg
same,"Salivation (mg) (mean value), 60 min",[2]; [5],6.64 mg
same,"Salivation (mg) (mean value), Total",[2]; [5],210.64 mg
same,"Salivation (mg) (mean value), 10 min",[2]; [6],66.8 mg
same,"Salivation (mg) (mean value), 20 min",[2]; [6],27.58 mg
same,"Salivation (mg) (mean value), 30 min",[2]; [6],12.89 mg
same,"Salivation (mg) (mean value), 40 min",[2]; [6],9.18 mg
same,"Salivation (mg) (mean value), 50 min",[2]; [6],6.56 mg
same,"Salivation (mg) (mean value), 60 min",[2]; [6],2.45 mg
same,"Salivation (mg) (mean value), Total",[2]; [6],125.47 mg
same,"Salivation (mg) (mean value), 10 min",[2]; [7],45.22 mg
same,"Salivation (mg) (mean value), 20 min",[2]; [7],21.91 mg
same,"Salivation (mg) (mean value), 30 min",[2]; [7],7.85 mg
same,"Salivation (mg) (mean value), 40 min",[2]; [7],5.06 mg
same,"Salivation (mg) (mean value), 50 min",[2]; [7],4.73 mg
same,"Salivation (mg) (mean value), 60 min",[2]; [7],3.5 mg
same,"Salivation (mg) (mean value), Total",[2]; [7],88.27 mg
same,"Salivation (mg) (mean value), 10 min",[2]; [8],7 mg
same,"Salivation (mg) (mean value), 20 min",[2]; [8],3.13 mg
same,"Salivation (mg) (mean value), 30 min",[2]; [8],3.17 mg
same,"Salivation (mg) (mean value), 40 min",[2]; [8],2.15 mg
same,"Salivation (mg) (mean value), 50 min",[2]; [8],2.49 mg
same,"Salivation (mg) (mean value), 60 min",[2]; [8],1.37 mg
same,"Salivation (mg) (mean value), Total",[2]; [8],19.31 mg
same,"Salivation (mg) (mean value), 10 min",[2]; [9],7.23 mg
same,"Salivation (mg) (mean value), 20 min",[2]; [9],2.83 mg
same,"Salivation (mg) (mean value), 30 min",[2]; [9],1.21 mg
same,"Salivation (mg) (mean value), 40 min",[2]; [9],4.11 mg
same,"Salivation (mg) (mean value), 50 min",[2]; [9],2.5 mg
same,"Salivation (mg) (mean value), 60 min",[2]; [9],1.8 mg
same,"Salivation (mg) (mean value), Total",[2]; [9],19.69 mg
same,Fesoterodine effect with Compound 1 on salivation,[2]; Fesoterodine 0.0078-0.5 mg/mL IV prior to Compound 1,significant decrease of salivation in a consistent dose-responsive manner
same,effect of fesoterodine pre-treatment on the increase in salivation post Compound 1 dosing,salivation; listed as fesoterodine,nearly abolished both subjective reports of hypersalivation and the objective increase in saliva volume
same,effect of fesoterodine pre-treatment on the increase in salivation post Compound 1 dosing,salivation; listed as fesoterodine fumarate,not observed

# Reference: patent US20250032460A1, “METHODS OF TREATING NEUROLOGICAL DISORDERS” (MapLight Therapeutics, Inc., priority 2021, published 2025)
